The record followed here is ChEMBL document CHEMBL5360550 (Eur J Med Chem, 2023).

As usually defined, the IC50 is the point on the concentration scale where inhibition reaches its midpoint. Usually ΔTm stands for the change in melting temperature against a reference sample.

Activity calls are given as the source filed them. The rule behind the calls is not given here. Some results are limits rather than exact numbers.

Data set [1] has as its system Trypanosoma brucei rhodesiense. The experiment in a line: Antiprotozoal activity against long slender blood stream form Trypanosoma brucei rhodesiense STIB900 assessed as parasite growth inhibition incubated for 70 hrs by resazurin based microplate fluorometer analysis. The data set is classed as functional, organism-based. The note with it: STIB900, 70 h.
Data set [2] has as its system Trypanosoma brucei rhodesiense. The experiment in a line: In vivo antiprotozoal activity against acute hemolymphatic stage Trypanosoma brucei rhodesiense STIB900 infected in NMRI mouse assessed as reduction of parasitaemia at 10 mg/kg, ip for 4 days consecutive and measured upto 60 days relative to control. Further details: scale not given: the % may be the effect or the level left. The format is functional. As to conditions: time 4 day.

For a further data set, the system named is Plasmodium falciparum. As to the kind of experiment: Antiprotozoal activity against chloroquine resistant Plasmodium falciparum K1 infected in human erythrocytes assessed as parasite growth inhibition incubated for 48 hrs by [3H]-hypoxanthine incorporation assay based Betaplate liquid scintillation counter method. The data set is classed as functional, organism-based. The note with it: K1, Erythrocyte.

Data set [3] is described as follows: Cytotoxicity against rat L6 cells assessed as reduction in cell viability incubated for 70 hrs by Alamar blue based microplate fluorescence assay. The data set is classed as toxicity. (The colour change of resazurin is a common sign of viable cells or microbes.)
The subject of data set [4] is AT rich DNA.
Description: Binding affinity to double stranded [poly(dA-dT)2] DNA (unknown origin) minor groove assessed as increase in melting temperature by spectrophotometer analysis
The nature of data set [5]: Selectivity index, ratio of IC50 for cytotoxicity against rat L6 cells to IC50 for antiprotozoal activity against chloroquine resistant Plasmodium falciparum K1 infected in human erythrocytes. As to conditions: read-out: Ratio IC50. The format is toxicity, cell-based.
The nature of data set [6]: Selectivity index, ratio of IC50 for cytotoxicity against rat L6 cells to IC50 for antiprotozoal activity against long slender blood stream form Trypanosoma brucei rhodesiense STIB900. The note with it: read-out: Ratio IC50. The format is toxicity, cell-based.
The subject of data set [7] is Trypanosoma brucei rhodesiense. As to the kind of experiment: In vivo antiprotozoal activity against acute hemolymphatic stage Trypanosoma brucei rhodesiense STIB900 infected in NMRI mouse assessed as reduction of parasitaemia at 5 mg/kg, ip for 4 days consecutive and measured upto 60 days relative to control. The format is functional. Further details: scale not given: the % may be the effect or the level left.

Data set [8] deals with AT rich DNA. As to the kind of experiment: Binding affinity to double stranded [poly(dA-dT)2] DNA (unknown origin) minor groove assessed as increase in positive induced CD signal in 360 to 400 nanometer absorption range incubated for 10 mins by circular dichroism spectroscopy. The format is nucleic-acid assay.

For the molecule `N=C(N)c1ccc(-c2ccc(-c3nc4ccc(C(=N)N)cc4[nH]3)s2)cc1`, the IC50 in data set [1] is 0.027 µM; with Plasmodium falciparum, 0.0118 µM. The Activity in data set [2] was found to be 75%. Also, the IC50 at 70 h in data set [3] stood at 22.4 µM. Further, the ΔTm in the data set with AT rich DNA [4] was over 30 °C. The selectivity ratio was 1900 in [5] and 829 in data set [6].
On to `N=C(N)c1ccc(-c2ccc(-c3nc4cc(C(=N)N)ccc4[nH]3)o2)cc1`, for which the figures for the IC50 (in data set [1]; in the data set on Plasmodium falciparum) were 0.122 µM and 0.0958 µM, respectively. For the same molecule, in data set [3], the IC50 at 70 h was determined as 10.1 µM. Moreover, in the data set with AT rich DNA [4], the ΔTm came to 25 °C. In addition, the selectivity ratio in data set [5] came to 105; in data set [6], 82. In addition, the Activity in [7] (time 4 day) is on record as 25%.
Consider `N=C(N)c1ccc2cc(-c3ccc(-c4ccc(C(=N)N)nc4)o3)[nH]c2c1`, for which the IC50 in data set [1] was 0.007 µM; in the data set on Plasmodium falciparum it was 0.0036 µM. In addition, the IC50 at 70 h in data set [3] was found to be 14.2 µM. In addition, the ΔTm with AT rich DNA [4] amounted to 28 °C. For the same molecule, the selectivity ratio in data set [5] came out at 3940; in data set [6], 2030. Moreover, in data set [7] (time 4.0 day), the result was inactive.
Regarding `N=C(N)c1ccc(-c2ccc(-c3cc4ccc(C(=N)N)cc4[nH]3)o2)cc1`, the IC50 in data set [1] was determined as 0.012 µM; in the data set on Plasmodium falciparum it was 0.0046 µM. In data set [3], the IC50 at 70 h is 12.9 µM. Also, the ΔTm with AT rich DNA [4] was over 30 °C. Moreover, the figures for the selectivity ratio in data set [5] and in data set [6] were 2800 and 1080, respectively. Further, the outcome in data set [7] (time 4.0 day) was inactive. For the same molecule, in the data set on AT rich DNA [8], the outcome was Active.
Consider `N=C(N)c1ccc(-c2ccc(-c3cc4cc(C(=N)N)ccc4[nH]3)o2)cc1`, for which the IC50 in data set [1] came to 0.002 µM; in the data set with Plasmodium falciparum, 0.0028 µM. Further, the IC50 at 70 h in data set [3] amounted to 14.2 µM. Moreover, the ΔTm in the data set with AT rich DNA [4] came to 29 °C. The values for the selectivity ratio in data set [5] and in data set [6] were 5070 and 7100, respectively. Also, the Activity in data set [7] (time 4 day) is on record as 75%. Besides, the result in the data set with AT rich DNA [8] was Active.
For the molecule `Cc1cc(C(=N)N)ccc1-c1ccc(-c2cc3ccc(C(=N)N)cc3[nH]2)o1`, in data set [1], the IC50 came to 0.006 µM. For the same molecule, the IC50 at 70 h in [3] was found to be 5.1 µM. Also, the ΔTm in the data set on AT rich DNA [4] was over 30 °C. Besides, the outcome in data set [7] (time 4.0 day) was inactive. The selectivity ratio in data set [6] stood at 850.
On the same counts, the results for `N=C(N)c1ccc(-c2ccc(-c3cc4ccc(C(=N)N)cc4[nH]3)s2)nc1` are 0.015 µM, 14.5 µM, 29 °C, “inactive” and 966.
As for `N=C(N)c1ccc(-c2ccc(-c3ccc(C(=N)N)cc3)o2)cc1` [FURAMIDINE], in the data set with AT rich DNA [4], the ΔTm was determined as 25 °C. Further, the Activity in data set [7] (time 4 day) came to 25%.
On to `COc1cc(C(=N)N)ccc1-c1ccc(-c2cc3ccc(C(=N)N)cc3[nH]2)o1`, for which, in [1], the IC50 worked out at 0.039 µM. For the same molecule, the IC50 at 70 h in [3] was found to be 11 µM. Further, the ΔTm in the data set on AT rich DNA [4] is 27 °C. For the same molecule, in [6], the selectivity ratio is 283.
On to `N=C(N)c1ccc(-c2ccc(-c3cc4cc(C(=N)N)ccc4[nH]3)o2)nc1`, for which the IC50 in data set [1] turned out to be 0.006 µM; in the data set with Plasmodium falciparum it was 0.0058 µM. The IC50 at 70 h in [3] is 50.4 µM. Further, the ΔTm in the data set with AT rich DNA [4] was found to be 27 °C. Moreover, the selectivity ratio in data set [5] is 8690; in [6] it was 8400. The Activity in [7] (time 4 day) is 75%.
Regarding `N=C(N)c1ccc(-c2ccc(-c3cc4ccc(C(=N)N)cc4[nH]3)o2)nc1`, the IC50 was determined as 0.017 µM in [1] and 0.0064 µM with Plasmodium falciparum. The IC50 at 70 h in data set [3] came to 34.8 µM. Also, the ΔTm in the data set with AT rich DNA [4] was 28 °C. Further, the selectivity ratio in [5] was 5440; in [6], 2050. For the same molecule, in data set [7] (time 4 day), the Activity worked out at 75%. The outcome in the data set on AT rich DNA [8] was Active.
Regarding `N=C(N)c1ccc(-c2ccc(-c3cc4cc(C(=N)N)ccc4[nH]3)[se]2)cc1`, the results for the IC50 (in [1]; in the data set on Plasmodium falciparum) were 0.003 µM and 0.0039 µM, respectively. The IC50 at 70 h in data set [3] worked out at 21.5 µM. Besides, the ΔTm in the data set with AT rich DNA [4] was over 30 °C. Besides, the selectivity ratio in data set [5] was 5510; in data set [6] it was 7170. In [7] (time 4 day), the Activity turned out to be 50%. For the same molecule, the outcome with AT rich DNA [8] was Active.
Regarding `N=C(N)c1ccc(-c2ccc(-c3cc4cc(C(=N)N)ccc4[nH]3)s2)cc1`, the half-maximal inhibitory concentration (IC50) in data set [1] stood at 0.006 µM; with Plasmodium falciparum, 0.0028 µM. Also, the IC50 at 70 h in data set [3] was found to be 17 µM. The ΔTm with AT rich DNA [4] came out at 29 °C. Also, the values for the selectivity ratio in data set [5] and in data set [6] were 6070 and 2830, respectively. Moreover, the Activity in [7] (time 4 day) is 50%.
Turning to `N=C(N)c1ccc(-c2ccc(-c3cc4ccc(C(=N)N)cc4[nH]3)s2)cc1`, the IC50 in data set [1] was found to be 0.012 µM; with Plasmodium falciparum, 0.0072 µM. In data set [3], the IC50 at 70 h was found to be 12.4 µM. Also, the ΔTm with AT rich DNA [4] was over 30 °C. The selectivity ratio was 1720 in data set [5] and 1030 in data set [6]. For the same molecule, the result in data set [7] (time 4.0 day) was inactive. In addition, the result in the data set on AT rich DNA [8] was Active.
